Laboratory results published in ChEMBL document CHEMBL5329181, “Green synthesis and anti-biofilm activities of 3,5-disubstituted isoxazoline/isoxazole-linked secondary sulfonamide derivatives on Pseudomonas aeruginosa” (2023).
Calls of active or inactive are those of the source. The calls are words filed in the database; no cut-off is given here.

Experiments:
Pseudomonas aeruginosa [1] = test: Antibacterial activity against Pseudomonas aeruginosa H103 assessed as reduction in bacterial growth at 200 uM measured every 15 min for 24 hrs by optical density based analysis; assay type: functional, organism-based
Pseudomonas aeruginosa [2] = test: Antibiofilm activity against Pseudomonas aeruginosa assessed as inhibition of biofilm formation at 200 uM incubated for 24 hrs by crystal violet staining based assay; assay type: functional, organism-based
Pseudomonas aeruginosa [3] = test: Destabilization of mature biofilms in Pseudomonas aeruginosa assessed as biofilm dispersion at 200 uM incubated for 24 hrs by crystal violet staining based assay relative to control; assay type: functional

In the case of `NNC(=O)c1ccccc1S(=O)(=O)NCc1cc(-c2ccc(Br)cc2)no1`, the Activity (Pseudomonas aeruginosa [1]) is reported as “inactive” and the Activity (Pseudomonas aeruginosa [2]) is reported as “inactive”.
In the case of `NNC(=O)c1ccccc1S(=O)(=O)NCC1CC(c2ccc(Cl)cc2Cl)=NO1` (stereo not drawn), the Activity (Pseudomonas aeruginosa [1]) is reported as “inactive”, the Activity (Pseudomonas aeruginosa [3]) is reported as 50% and the Activity (Pseudomonas aeruginosa [2]) is reported as “inactive”.
With `NNC(=O)c1ccccc1S(=O)(=O)NCC1CC(c2ccc(Cl)c(Cl)c2)=NO1` (stereo not drawn) the Activity (Pseudomonas aeruginosa [1]) was “inactive” and the Activity (Pseudomonas aeruginosa [2]) was “inactive”.
For `NNC(=O)c1ccccc1S(=O)(=O)NCC1CC(c2ccc(Br)cc2)=NO1` (stereo not drawn), the Activity (Pseudomonas aeruginosa [1]) was “inactive” and the Activity (Pseudomonas aeruginosa [2]) was “inactive”.
For `NNC(=O)c1ccccc1S(=O)(=O)NCC1CC(c2ccccc2Cl)=NO1` (stereo not drawn), the Activity (Pseudomonas aeruginosa [1]) was “inactive”, the Activity (Pseudomonas aeruginosa [3]) was “inactive” and the Activity (Pseudomonas aeruginosa [2]) was “inactive”.
For `NNC(=O)c1ccccc1S(=O)(=O)NCC1CC(c2ccccc2)=NO1` (stereo not drawn), the Activity (Pseudomonas aeruginosa [1]) was “inactive” and the Activity (Pseudomonas aeruginosa [2]) was “inactive”.
With `NNC(=O)c1ccccc1S(=O)(=O)NCc1cc(-c2ccc(Cl)cc2Cl)no1` the Activity (Pseudomonas aeruginosa [1]) was “inactive”, the Activity (Pseudomonas aeruginosa [3]) was 50% and the Activity (Pseudomonas aeruginosa [2]) was “inactive”.
With `C=CCNS(=O)(=O)c1ccccc1C(=O)NN` the Activity (Pseudomonas aeruginosa [1]) was “inactive”, the Activity (Pseudomonas aeruginosa [3]) was 30% and the Activity (Pseudomonas aeruginosa [2]) was “inactive”.
For `C#CCNS(=O)(=O)c1ccccc1C(=O)NN`, the Activity (Pseudomonas aeruginosa [1]) was “inactive” and the Activity (Pseudomonas aeruginosa [2]) was “inactive”.
`COc1ccc(C2=NOC(CNS(=O)(=O)c3ccccc3C(=O)NN)C2)cc1` (stereo not drawn) was tested, and the Activity (Pseudomonas aeruginosa [1]) was “inactive”, the Activity (Pseudomonas aeruginosa [3]) was 50% and the Activity (Pseudomonas aeruginosa [2]) was “inactive”.
For `NNC(=O)c1ccccc1S(=O)(=O)NCC1CC(c2cccc([N+](=O)[O-])c2)=NO1` (stereo not drawn), the Activity (Pseudomonas aeruginosa [1]) was “inactive” and the Activity (Pseudomonas aeruginosa [2]) was “inactive”.
For `NNC(=O)c1ccccc1S(=O)(=O)NCC1CC(c2ccc(Cl)cc2)=NO1` (stereo not drawn), the Activity (Pseudomonas aeruginosa [1]) was “inactive”, the Activity (Pseudomonas aeruginosa [3]) was “inactive” and the Activity (Pseudomonas aeruginosa [2]) was “inactive”.
For `Cc1ccc(C2=NOC(CNS(=O)(=O)c3ccccc3C(=O)NN)C2)cc1` (stereo not drawn), the Activity (Pseudomonas aeruginosa [1]) was “inactive” and the Activity (Pseudomonas aeruginosa [2]) was “inactive”.
`CN[C@@H]1[C@@H](O[C@H]2O[C@H](CO)[C@@H](N)[C@H](O)[C@H]2O)O[C@H]2C[C@@H](N)[C@@H](O[C@H]3[C@H](O)[C@@H](O)[C@H](N)C[C@@H]3N)O[C@@H]2[C@@H]1O` was tested, and the Activity (Pseudomonas aeruginosa [3]) was 50%.
